The values that follow come from publication PMC11939078, “TAK-994 mechanistic investigation into drug-induced liver injury” (Toxicological Sciences, 2025).

SMILES strings stand for the structures.

One series concerns patients with narcolepsy. The conditions noted are these: in vivo.
In a further series the test system is human hepatocytes. Put plainly: Covalent binding of [14C]TAK-994 in human hepatocytes and CVB burden. The format is in vitro ADME. The conditions noted are these: for Daily CVB burden: most conservative values based on internal assay data (Table 1); for CVB burden: fa and fm assumed 1 (Table 3). As to the method:
Covalent binding of TAK-994 was assessed by incubating [^14C]TAK-994 with human hepatocytes. The CVB level was determined by relating the total amount of radioactivity (pmol equivalent) to the protein concentration in each sample. Assessment of TAK-994 inhibition potential for the bile salt efflux pump (BSEP) was assessed by incubating [^3H(G)]taurocholic acid with TAK-994 (0 to 100 μM/l) or cyclosporin A after addition of 10 μl of membrane vesicles expressing BSEP or control membrane vesicles. Scintillation counts were assessed in two 5-min cycles.
[^14C ]TAK-994 (10 μmol/L, supplied by Takeda Pharmaceutical Company Limited, Japan) was incubated with human hepatocytes (LIVERPOOL® 10-donor mixed gender, pooled, cryopreserved human hepatocytes [Lot No. ZOL, BioIVT]) as suspension culture in 24-well plates at 37°C under 5% CO2, humidified, for 0 or 2 hours. Seeding density of the cells was 3.0 × 10^5 viable cells/500 μL/well. A total of 3 replicates were assessed.
The covalent-binding (CVB) level was determined by relating the total amount of radioactivity (pmol equivalent) to the protein concentration in each sample. To obtain the net covalent-binding (CVBnet), the average result of the “back-added” samples (CVBback) was subtracted from the average result of the incubated samples (CVBinc). For the determination of [^14C ]TAK-994 turnover in the incubation, part of the samples were analyzed by high-performance liquid chromatography with an online flow scintillation analyzer.
Turnover = 1 − [percentage of TAK-994 relative to the total radioactivity at 2 hours] [percentage of TAK-994 relative to the total radioactivity at 0 hour]
fcvb = CVB (pmol/mg protein) × [mean protein concentration (mg/well)] turnover × [substrate concentration (pmol/well)]
CVB burden (mg) = D × fa × fm × fcvb
D was set to 60, 180, 240, and 360 mg. Both fa and fm were set to a value of 1 (Thompson et al. 2012).

Series [1] deals with PXB cells (human hepatocytes). Put plainly: CLF efflux (bile transport) assay in PXB cells. In kind it is cell-based. The conditions noted are these: n = 3. As to the method: Cholyl-lysyl-fluorescein (CLF) efflux for TAK-994 was assessed using human hepatocytes implanted into PXB-mice. PXB cells were exposed to TAK-994 (0.3, 1, 3, 10, 30, and 100 μM) or vehicle for 2 h and then incubated for an additional 30 min with TAK-994 or vehicle containing 5 μM CLF. CLF efflux and its inhibition by TAK-994 were assessed by fluorescence analysis.
PXB hepatocytes were generated by implanting human hepatocytes into PXB-mice®. These hepatocytes were isolated by collagenase perfusion at PhoenixBio Co Ltd. Freshly isolated hepatocytes were maintained in T-75 flasks and detached using 0.25% trypsin/ethylenediaminetetraacetic acid (EDTA) incubation for 20 minutes (total) using the following procedure. A flash wash was performed with cold trypsin/EDTA, followed by a 5-minute incubation with cold trypsin/EDTA at 37°C, and finally a 15-minute incubation at 37°C with trypsin/EDTA. […]
On Day 8, PXB cells were exposed to TAK-994 (0.3, 1, 3, 10, 30, and 100 μM) or 0.1% DMSO for 2 hours and then incubated for an additional 30 minutes with TAK-994 or […] containing 5 μM CLF. […] The CLF efflux and its inhibition by TAK-994 was quantified using Developer toolbox software. […] The fluorescent intensities of bile canalicular regions were measured to determine the IC50 for TAK-994 CLF efflux inhibition. […]

The test system of series [2] is human liver microtissues + FFA. Put plainly: Hepatotoxicity in steatosis liver model (free fatty acids). To be noted: 14 days. The format is cell-based. As to the method: Mono and co-culture model cells were exposed to TAK-994 (0.1, 0.3, 1, 3.16, 10, 31.6, or 100 μM in 0.5% DMSO) for 14 days (TAK-994 administered on Days 0, 5, and 9). The cell culture medium was supplemented with free fatty acids of 100 μM of Oleic acid and 66 μM of Palmitic acid. Six replicates were tested for each condition. The vehicle control was 0.5% DMSO, and the positive control was chlorpromazine (0.1, 0.3, 1, 3.16, 10, 31.6, or 100 μM in DMSO). Cellular ATP content was measured in the cell lysate on Day 14 of treatment. LDH release was measured in the cell supernatant on Days 5, 9, and 14 and normalized to lysed controls. Cellular triglyceride content was measured in the microtissues on Day 14.
Intracellular ATP content in model lysates was measured with the CellTiter-Glo® 2.0 Cell Viability Assay (Catalogue No. G9243, Promega). The Bioluminescent LDH Release Toxicity Assay Kit (Catalogue No. J2380, Promega) was used to assess extracellular LDH release and normalized to lysed controls. ATP, LDH, GSH, and triglycerides were measured according to internal technical operating procedures.

The term IC50 denotes the concentration needed to halve the response being measured. Low readings indicate greater potency, high ones weaker potency. On to `CC(C)(O)C(=O)N1CC[C@H](NS(C)(=O)=O)[C@@H]1Cc1cccc(-c2cc(F)cc(F)c2)c1F.CC(C)(O)C(=O)N1CC[C@H](NS(C)(=O)=O)[C@@H]1Cc1cccc(-c2cc(F)cc(F)c2)c1F.O.O.O` [TAK-994], for which, in the series on patients with narcolepsy, the “onset of earliest Hy's Law case” value was determined as 50 days. Moreover, the “Daily CVB burden” value with human hepatocytes (90 mg BID) came out at 25.1 mg; with human hepatocytes (180 mg BID), 50.2 mg. Besides, the CVB level in the series with human hepatocytes (2-h incubation of human hepatocytes with TAK-994 at 10 μM) was 389.2 pmol equivalent/mg protein. The CVB burden in the series on human hepatocytes (daily dose 60 mg (30 BID)) came out at 2.94 mg; in the series on human hepatocytes (daily dose 180 mg (90 BID)), 8.82 mg; in the series on human hepatocytes (daily dose 240 mg (120 BID)) it was 11.8 mg; in the series with human hepatocytes (daily dose 360 mg (180 BID)), 17.6 mg. In addition, the “f CVB (fraction of metabolism leading to covalent binding)” value in the series on human hepatocytes (human hepatocytes, 10 μM, 2 h) was determined as 0.0490. This compound displayed an IC50 in series [1] of 30 µM. In addition, in series [2], the “sensitization of liver microtissues by free fatty acids” value was “no increased sensitivity”.
